Laboratory results reported in US20240279201A1, “DUAL WNT SIGNALING PATHWAY INHIBITORS AND AMPK ACTIVATORS FOR TREATMENTS OF DISEASE” (priority 2021, published 2024).
“Also recorded” adds a separate entry of the source.

Assays:
[1] = Cytotoxicity (CC50) during the luciferase gene reporter assay; assay type: cell-based; conditions: human, HEK293 cells; short treatment duration of the luciferase gene reporter assay
physchem = test: physchem
Experimental: (§1) The ADMET and PK properties of YA6060 was determined.
Determination of physiochemical properties. The profiles of six selected analogs is estimated in silico, and selected Axin stabilizers are evaluated in in vitro assays: the aqueous solubility is determined using a multiscreen solubility filter plate (Millipore, Billerica, MA) coupled with LC-MS/MS, as performed for the already synthesized YA6060 analogs; the cell viability assays on selected analogs is measured using HEK293 cells; the intestinal permeability by determining the transport from the apical to the basolateral (A to B) in Caco-2 monolayers; the metabolic stability by incubating the compounds with mouse microsomes and liver tissue S9 fraction and analyzing by LC-MS/MS.

[2] = Pharmacokinetic (PK) studies, oral dose; conditions: C57/BL6, mouse, blood, 5 mg/kg
Experimental: as §1
PK/Tox. The four selected compounds from in vitro evaluation above are subjected to PK and toxicity assessment in C57/BL6 mice. […] Compound concentrations is determined by LC/MS/MS. PK analysis is carried out on Phoenix Winnolin using non-compartmental analysis and compartment models. Compound accumulation in major tissues, including liver, kidney, heart, brain and intestine, are quantified. […] For study ii, a half number of mice per group are sacrificed immediately after the 3-week course and the remaining after a 2-week washout period to assess delayed toxicity. In toxicity studies, blood is collected upon euthanasia for liver and renal chemistries and complete blood counts, and major organs harvested and examined macro- and microscopically by veterinarian pathologists. It is expected that an understanding of PK properties, such as bioavailability, AUC, clearance, and toxic effects, such as general tolerance and specific toxicity in the liver, kidney, other major organs, and particularly Wnt-dependent tissues, such as intestine, stomach, and skin is established for these selected compounds.

[3] = system: DMNA-induced liver fibrosis; test: Dimethylnitrosamine (DMNA) liver fibrosis mouse model; assay type: in vivo, C57BL/6 mice
Experimental: FIG. 4 illustrates that YA6060 protects liver from damage caused by dimethylnitrosamine (DMNA). Vehicle (top panels) or 10 mg/kg DMNA (bottom panels) was given on a Monday-Tuesday-Wednesday schedule each week; YA6060 or vehicle was given daily. After sacrifice of mice (6/group) at 4 weeks, paraffin sections were stained with Sirius Red to visualize collagen. […] Bars, 100 μm.
FIG. 10 is a graph of experimental data illustrating anti-fibrotic efficacy of YA6060 in mice. C57BL/6 mice received dimethylnitrosamine (DMNA, 10 mg/kg/d i.p. for 3d and then rest for 4d) or saline, with or without YA6060 (0.5 mg/kg/d) for 4 weeks. The fibrosis and inflammation biomarkers were examined by RT-PCR with the liver tissues.
FIG. 11A-FIG. 11C illustrate the effect of YA6060 on liver function in mice. C57BL/6 mice received dimethylnitrosamine (DMNA, 10 mg/kg/d i.p. for 3d and then rest for 4d) or saline, with or without YA6060 (0.5 mg/kg/d) for 4 weeks. The serum biochemistry was determined for alanine aminotransferase (ALT) and aspartate aminotransferase (AST) (FIG. 11A), albumin (FIG. 11B), and total bilirubin (FIG. 11C).
The effect of YA6060 treatment on the expression of fibrotic markers in LX-2 cells was examined. LX-2 cells were treated with TGF-beta to model fibrosis. Protein expression of collagen 1, vimentin, and alpha-SMA by Western blotting (FIG. 14A). mRNA expression of collagen 1, vimentin, and alpha-SMA by RT-PCR was examined (FIG. 14B). mRNA expression of genes associated with inflammation by RT-PCR was examined (FIG. 14C). The cells were treated with the indicated concentrations of YA6060 for 24 hours. *P<0.05, **P<0.01. The effect of YA6060 treatment on liver fibrosis in mice was also examined (FIG. 15). […]
Fibrosis in the liver tissues of the mice that received YA6060 treatment was quantified (FIG. 16). […] The collagen of liver tissues was stained by Sirius red (SR) and quantitated by Image J software. ***P<0.001. […]

β-catenin = β-catenin (Homo sapiens (Human), UniProt P35222); test: Western blotting of β-catenin in HEK293 cells; assay type: cell-based; conditions: 100 nM, 24 h
Experimental: (§2) FIG. 6A-FIG. 6E illustrate the development of Axin stabilizers with dual activities of Wnt inhibition and AMPK activation. […] HEK293 cells were used. B&C: 100 nM compounds, 24 h. FIG. 6D is a table showing the activity profile of YA6060. F=bioavailability; soubility is aqueous solubility.
(§3) A dual-luciferase gene reporter assay was used to test inhibitory activities of new compounds on Wnt signaling. […] Axin is also reported to form a complex with AMPK and its upstream kinase LKB1 (FIG. 12A and FIG. 12B) to facilitate AMPK activation. Therefore, the effects of new compounds on AMPK was examined. […] YA6060 and its analogs had dual activities of potent Wnt signaling inhibition and AMPK activation, which were dependent on the levels of scaffolding protein Axin.

Axin 1 = Axin 1 (Homo sapiens (Human), UniProt O15169); test: Western blotting of Axin 1 in HEK293 cells; assay type: cell-based; conditions: 100 nM, 24 h
Experimental: as §2, §3

Cc1ccccc1-n1nnc(C(=O)Nc2ccc3cc(CN4CCNCC4)ccc3n2)c1C [YA6060]
CC50 [1]: > 92 µM | aqueous solubility (physchem): > 75 mg/mL | increase in aqueous solubility from FX1128 and FX2065 (physchem): over 10,000 fold | solubility (physchem; water, aqueous solubility): > 78 mg/mL | half-life ([2]; oral): 160 min | Cmax ([2]; po): 24000 ng/mL | Tmax ([2]; po): 1.6 h | bioavailability ([2]; po): 75% | half-life ([2]; po): 160 min | liver fibrosis (Sirius Red) ([3]; 0.5 or 5 mg/kg/day, 4 weeks): reduced dimethylnitrosamine (DMNA)-induced fibrosis; also recorded: strong protective effects | inflammation infiltration (H&E hepatic histology) ([3]; DMNA 4 weeks): ameliorated | liver function (serum ALT, AST, albumin, total bilirubin) ([3]; YA6060 co-treatment with DMNA): normal liver function | protein level of β-catenin (β-catenin): decreased | level of Axin 1 (Axin 1): stabilizing
